Measured values reported in patent publication US9428439B2, “Hydrobenzamide derivatives as inhibitors of Hsp90” (priority 2006, dated 2016).
Entries after “also recorded” stand apart in the source; their conditions may differ.

Tests used:
[1] = Solid-state stability of crystalline forms (XRPD); format: physicochemical; details: for stability in air: XRPD
Text: Samples for X-ray powder diffraction (XRPD) data collection were gently ground by marble mortar and loaded into a crystallographic capillary (from Hampton Research, Quartz or Glass Type 10, 0.4 or 0.7 mm diameter). Diffraction patterns were collected at room temperature using CuKα radiation (λ=1.5418 Å) from a Rigaku rotating anode RU3HR, Osmic blue confocal optics, ¼ c goniometer and a Rigaku HTC image plate detector. 2D Images were collected while spinning φ axis with a detector to crystal distance of 250 mm. Data collection was controlled by CrystalClear software and 2D images were converted to 1D plot (2θ vs. Intensity) by Datasqueeze (intensity averaged over the azimuthal angle 0≦χ≦360° for […] 3-30° in 0.02° steps). In house program AstexXRPD was used for manipulation and visualisation of 1D XRPD patterns.

Hygroscopicity = format: physicochemical
[2] = tested on: human colon cancer cell line HCT116; assay: Anti-proliferative activity (Alamar Blue assay); format: cell-based; details: HCT-116
Method: The anti-proliferative activities of compounds of the invention can be determined by measuring the ability of the compounds to inhibition of cell growth in a number of cell lines such as the human colon cancer cell line HCT116. Inhibition of cell growth is measured using the Alamar Blue assay (Nociari, M. M, Shalev, A., Benias, P., Russo, C. Journal of Immunological Methods 1998, 213, 157-167). The method is based on the ability of viable cells to reduce resazurin to its fluorescent product resorufin. For each proliferation assay cells are plated onto 96 well plates and allowed to recover for 16 hours prior to the addition of inhibitor compounds for a further 72 hours. At the end of the incubation period 10% (v/v) Alamar Blue is added and incubated for a further 6 hours prior to determination of fluorescent product at […]. In the case of the non-proliferating cell assay cells are maintained at confluence for 96 hour prior to the addition of inhibitor compounds for a further 72 hours. The number of viable cells is determined by Alamar Blue assay as before. Cell lines can be obtained from the ECACC (European Collection of cell Cultures).

hERG = hERG (Homo sapiens, UniProt Q12809); assay: hERG activity
[3] = target: T1, human Hsp90α N-terminal domain (Homo sapiens, UniProt P07900); assay: Isothermal titration calorimetry (ITC); format: binding
T1 construct: purification of the Human Hsp90α N-terminal domain were performed according to published methods; made in house
Method: The ability of the compounds of the invention to bind to human Hsp90 proteins was determined using isothermal titration calorimetry. Isothermal titration calorimetry (ITC) experiments were performed with a VP-ITC titration calorimeter (Microcal Inc., Northampton, Mass., USA). Cloning, expression, and purification of the Human Hsp90α N-terminal domain were performed according to published methods (Jez, J. M. et al, Chem. […] All solutions were filtered and degassed prior to a titration being carried out. The enthalpy change resulting from each injection of ligand was obtained through integration of the calorimetric signal. Data were analysed using Origin 7.0 (Microcal Software Inc., Northampton, Mass.). Heats of dilution were estimated using the final injections of each individual titration and subtracted before data fitting. […] For weakly binding compounds a low c-value ITC method was used (Turnbull […]. Am. Chem. Soc. 2003 Dec. 3; 125(48):14859-66) in which the protein was present at 10-20 μM in the calorimetric cell and the compound concentration was 1-20 mM in the injection syringe. In this type of experiment the stoichiometry parameter (N) was locked at 1 for data fitting. […] In rare cases where compound solubility was limiting, the compound solution was placed in the calorimetric cell and titrated with protein from the injection syringe, maintaining a c-value between 5 and 1000. […]

Rate of solubility = format: physicochemical; details: compared with the free base and other salts tested

hERG, sequence (Q12809 whole entry, the tested form may be a part): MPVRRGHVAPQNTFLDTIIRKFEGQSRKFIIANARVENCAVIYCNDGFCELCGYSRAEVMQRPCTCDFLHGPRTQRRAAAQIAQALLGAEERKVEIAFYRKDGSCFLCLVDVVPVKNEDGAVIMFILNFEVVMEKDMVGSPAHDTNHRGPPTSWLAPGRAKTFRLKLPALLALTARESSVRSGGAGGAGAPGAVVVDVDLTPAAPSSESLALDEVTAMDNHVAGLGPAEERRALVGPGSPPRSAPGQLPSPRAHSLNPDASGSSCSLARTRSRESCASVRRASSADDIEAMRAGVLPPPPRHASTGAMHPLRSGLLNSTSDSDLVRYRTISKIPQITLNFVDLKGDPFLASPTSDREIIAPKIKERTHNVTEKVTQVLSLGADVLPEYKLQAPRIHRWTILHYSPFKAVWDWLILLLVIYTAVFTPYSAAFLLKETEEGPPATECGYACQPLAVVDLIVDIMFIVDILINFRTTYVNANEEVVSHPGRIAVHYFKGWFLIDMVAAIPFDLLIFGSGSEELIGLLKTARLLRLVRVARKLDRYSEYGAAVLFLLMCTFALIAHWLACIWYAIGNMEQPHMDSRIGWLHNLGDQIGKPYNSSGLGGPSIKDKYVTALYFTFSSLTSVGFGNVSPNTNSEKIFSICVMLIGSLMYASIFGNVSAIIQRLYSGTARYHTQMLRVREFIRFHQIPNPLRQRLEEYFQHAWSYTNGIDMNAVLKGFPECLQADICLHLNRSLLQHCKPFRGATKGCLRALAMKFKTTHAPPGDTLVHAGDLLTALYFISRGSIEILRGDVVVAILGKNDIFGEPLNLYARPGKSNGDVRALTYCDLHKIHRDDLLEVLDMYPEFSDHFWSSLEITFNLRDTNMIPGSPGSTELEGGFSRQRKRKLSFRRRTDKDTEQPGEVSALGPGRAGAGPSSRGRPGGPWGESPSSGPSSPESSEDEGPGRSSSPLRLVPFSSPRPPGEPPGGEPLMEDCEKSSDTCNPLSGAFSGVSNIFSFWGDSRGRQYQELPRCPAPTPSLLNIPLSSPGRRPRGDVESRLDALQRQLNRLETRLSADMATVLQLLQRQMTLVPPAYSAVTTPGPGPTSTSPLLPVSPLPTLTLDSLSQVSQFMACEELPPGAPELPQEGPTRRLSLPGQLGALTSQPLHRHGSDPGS

Compound: CC(C)c1cc(C(=O)N2Cc3ccc(CN4CCN(C)CC4)cc3C2)c(O)cc1O.Cl [Form FH1, (2,4-dihydroxy-5-isopropyl-phenyl)-[5-(4-methyl-piperazin-1-ylmethyl)-1,3-dihydro-isoindol-2-yl]-methanone hydrochloride salt]
- stability in air ([1]; listed as FH1, hydrochloride salt): unstable in air
- hygroscopicity (Hygroscopicity): very hygroscopic and dissolves in air moisture

Compound: CC(C)c1cc(C(=O)N2Cc3ccc(CN4CCN(C)CC4)cc3C2)c(O)cc1O [Compound (1), (2,4-dihydroxy-5-isopropyl-phenyl)-[5-(4-methyl-piperazin-1-ylmethyl)-1,3-dihydro-isoindol-2-yl]-methanone]
- IC50 [2]: < 100 nM
- hERG activity (hERG): low hERG activity
- mean IC50 value against hERG relative to the IC50 values of the compound in cellular proliferation assays (hERG): greater than 30 times
- IC50 (hERG; read-out: mean IC50 value against hERG): > 15000 nM
- Kd [3]: < 100 nM

Compound: CC(C)c1cc(C(=O)N2Cc3ccc(CN4CCN(C)CC4)cc3C2)c(O)cc1O.C[C@H](O)C(=O)O [(2,4-dihydroxy-5-isopropyl-phenyl)-[5-(4-methyl-piperazin-1-ylmethyl)-1,3-dihydro-isoindol-2-yl]-methanone L-lactate salt]
- rate of solubility (Rate of solubility): better rate of solubility than the free base and other salts tested
- hygroscopicity (Hygroscopicity): non-hygroscopic

Compound: CC(C)c1cc(C(=O)N2Cc3ccc(CN4CCN(C)CC4)cc3C2)c(O)cc1O [Form FB3, (2,4-dihydroxy-5-isopropyl-phenyl)-[5-(4-methyl-piperazin-1-ylmethyl)-1,3-dihydro-isoindol-2-yl]-methanone]
- stability at 40° C. and 75% RH ([1]; 40° C., 75% RH): stable in air at 40 °C and in 75% relative humidity for at least one month; also recorded: stable in air and at 40 °C and 75% RH for at least one month
- stability in air ([1]; listed as FB3): stable in air
